Source: PMC11345841, “Exploring 2-Sulfonylpyrimidine Warheads as Acrylamide Surrogates for Targeted Covalent Inhibition: A BTK Story” (Journal of Medicinal Chemistry, 2024)
Like-named read-outs stand apart in the source and are kept apart here.

Key:
Experiment in all cases: KINOMEscan ScanTK
Type in all cases: binding
[1] = target: T1, ERBB3 (Homo sapiens, UniProt P21860)
T1 construct: purchased Eurofins DiscoverX KINOMEscan (scanTK)

[2] = target: T2, INSRR (Homo sapiens, UniProt P14616)
T2 construct: purchased Eurofins DiscoverX KINOMEscan (scanTK)

[3] = target: T3, EPHA2 (Homo sapiens, UniProt P29317)
T3 construct: purchased Eurofins DiscoverX KINOMEscan (scanTK)

[4] = target: T4, ALK(L1196M) (Homo sapiens, UniProt Q9UM73, L1196M)
T4 construct: purchased Eurofins DiscoverX KINOMEscan (scanTK)
T4 sequence (Q9UM73 19-1620 L1196M): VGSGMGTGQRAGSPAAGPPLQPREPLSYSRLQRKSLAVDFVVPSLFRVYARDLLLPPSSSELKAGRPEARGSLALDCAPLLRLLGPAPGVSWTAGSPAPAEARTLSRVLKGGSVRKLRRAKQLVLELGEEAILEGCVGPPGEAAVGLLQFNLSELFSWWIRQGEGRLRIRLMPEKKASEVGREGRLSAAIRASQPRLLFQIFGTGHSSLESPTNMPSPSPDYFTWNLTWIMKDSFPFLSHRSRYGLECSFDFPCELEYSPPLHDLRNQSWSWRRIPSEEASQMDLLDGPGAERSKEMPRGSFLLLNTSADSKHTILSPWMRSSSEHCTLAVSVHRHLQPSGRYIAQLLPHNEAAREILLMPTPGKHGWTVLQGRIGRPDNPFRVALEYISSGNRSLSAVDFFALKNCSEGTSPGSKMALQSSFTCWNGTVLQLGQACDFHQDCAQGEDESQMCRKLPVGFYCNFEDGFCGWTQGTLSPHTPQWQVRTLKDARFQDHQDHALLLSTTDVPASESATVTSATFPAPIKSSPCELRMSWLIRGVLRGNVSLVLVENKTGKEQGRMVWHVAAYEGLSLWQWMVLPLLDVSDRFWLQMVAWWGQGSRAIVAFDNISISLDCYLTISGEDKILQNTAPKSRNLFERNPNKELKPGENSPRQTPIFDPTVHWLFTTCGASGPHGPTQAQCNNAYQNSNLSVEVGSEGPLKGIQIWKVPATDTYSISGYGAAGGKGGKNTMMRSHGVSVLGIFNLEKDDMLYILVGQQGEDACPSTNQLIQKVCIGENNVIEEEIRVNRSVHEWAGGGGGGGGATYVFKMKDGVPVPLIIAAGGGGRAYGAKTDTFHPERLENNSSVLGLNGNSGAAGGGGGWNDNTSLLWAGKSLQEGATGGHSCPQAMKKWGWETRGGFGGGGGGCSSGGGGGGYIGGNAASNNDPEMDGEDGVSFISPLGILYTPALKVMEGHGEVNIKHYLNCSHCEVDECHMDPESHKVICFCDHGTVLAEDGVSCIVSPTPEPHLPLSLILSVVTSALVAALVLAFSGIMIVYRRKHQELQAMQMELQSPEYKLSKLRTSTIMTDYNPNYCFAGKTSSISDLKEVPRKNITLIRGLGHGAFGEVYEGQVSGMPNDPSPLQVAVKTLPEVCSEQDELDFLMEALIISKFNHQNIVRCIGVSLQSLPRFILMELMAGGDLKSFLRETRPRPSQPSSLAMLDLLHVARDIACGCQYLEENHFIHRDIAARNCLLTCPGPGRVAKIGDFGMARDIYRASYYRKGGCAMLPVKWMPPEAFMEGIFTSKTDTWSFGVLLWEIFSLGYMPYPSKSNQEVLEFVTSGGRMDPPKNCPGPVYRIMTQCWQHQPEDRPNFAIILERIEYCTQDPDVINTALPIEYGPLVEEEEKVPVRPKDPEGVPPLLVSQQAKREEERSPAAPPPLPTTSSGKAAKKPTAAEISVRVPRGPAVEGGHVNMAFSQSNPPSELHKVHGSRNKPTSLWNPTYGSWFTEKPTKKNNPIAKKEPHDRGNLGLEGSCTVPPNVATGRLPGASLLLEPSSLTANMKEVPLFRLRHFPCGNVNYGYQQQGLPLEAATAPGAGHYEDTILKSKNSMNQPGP

[5] = target: T5, FLT3(R834Q) (Homo sapiens, UniProt P36888, R834Q)
T5 construct: purchased Eurofins DiscoverX KINOMEscan (scanTK)
T5 sequence (P36888 27-993 R834Q): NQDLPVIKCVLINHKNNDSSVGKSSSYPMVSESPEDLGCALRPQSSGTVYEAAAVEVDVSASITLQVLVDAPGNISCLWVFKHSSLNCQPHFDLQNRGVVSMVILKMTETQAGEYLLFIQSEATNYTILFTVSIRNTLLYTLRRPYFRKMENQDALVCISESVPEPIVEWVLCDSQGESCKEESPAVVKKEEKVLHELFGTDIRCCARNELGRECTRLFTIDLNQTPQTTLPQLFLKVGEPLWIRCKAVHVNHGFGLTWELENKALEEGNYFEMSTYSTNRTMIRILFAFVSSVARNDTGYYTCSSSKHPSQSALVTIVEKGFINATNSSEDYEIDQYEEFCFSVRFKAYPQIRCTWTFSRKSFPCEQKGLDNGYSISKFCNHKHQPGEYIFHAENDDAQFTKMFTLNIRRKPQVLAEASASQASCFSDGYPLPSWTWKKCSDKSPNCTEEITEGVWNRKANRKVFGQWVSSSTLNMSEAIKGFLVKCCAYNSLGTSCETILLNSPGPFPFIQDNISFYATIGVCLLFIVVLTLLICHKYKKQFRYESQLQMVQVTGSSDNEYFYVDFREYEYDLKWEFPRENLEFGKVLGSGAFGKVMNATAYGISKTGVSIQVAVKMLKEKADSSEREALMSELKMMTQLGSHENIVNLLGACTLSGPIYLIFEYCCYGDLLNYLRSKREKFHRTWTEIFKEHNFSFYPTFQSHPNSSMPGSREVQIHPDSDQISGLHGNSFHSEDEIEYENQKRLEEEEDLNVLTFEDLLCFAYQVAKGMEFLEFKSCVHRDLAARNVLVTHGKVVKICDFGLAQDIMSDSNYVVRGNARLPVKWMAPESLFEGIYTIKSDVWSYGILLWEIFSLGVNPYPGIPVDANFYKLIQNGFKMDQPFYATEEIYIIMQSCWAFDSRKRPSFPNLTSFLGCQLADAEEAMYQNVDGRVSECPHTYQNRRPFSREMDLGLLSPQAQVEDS

[6] = target: T6, ABL2 (Homo sapiens, UniProt P42684)
T6 construct: purchased Eurofins DiscoverX KINOMEscan (scanTK)

[7] = target: T7, EGFR(S752-I759del) (Homo sapiens, UniProt P00533, DEL752-759)
T7 construct: purchased Eurofins DiscoverX KINOMEscan (scanTK)
T7 sequence (P00533 with tags, fused parts or gaps DEL752-759 limits assumed): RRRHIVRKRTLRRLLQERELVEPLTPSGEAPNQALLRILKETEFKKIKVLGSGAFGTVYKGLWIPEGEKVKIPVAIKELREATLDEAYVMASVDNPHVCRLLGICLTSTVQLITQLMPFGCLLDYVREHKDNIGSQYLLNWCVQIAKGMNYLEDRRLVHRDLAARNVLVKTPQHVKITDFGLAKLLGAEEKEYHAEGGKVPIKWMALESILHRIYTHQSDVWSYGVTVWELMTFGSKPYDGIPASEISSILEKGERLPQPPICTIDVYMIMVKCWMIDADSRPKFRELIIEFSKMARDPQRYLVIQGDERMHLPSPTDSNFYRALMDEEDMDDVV

[8] = target: T8, FGFR1 (Homo sapiens, UniProt P11362)
T8 construct: purchased Eurofins DiscoverX KINOMEscan (scanTK)
T8 sequence (P11362 22-822): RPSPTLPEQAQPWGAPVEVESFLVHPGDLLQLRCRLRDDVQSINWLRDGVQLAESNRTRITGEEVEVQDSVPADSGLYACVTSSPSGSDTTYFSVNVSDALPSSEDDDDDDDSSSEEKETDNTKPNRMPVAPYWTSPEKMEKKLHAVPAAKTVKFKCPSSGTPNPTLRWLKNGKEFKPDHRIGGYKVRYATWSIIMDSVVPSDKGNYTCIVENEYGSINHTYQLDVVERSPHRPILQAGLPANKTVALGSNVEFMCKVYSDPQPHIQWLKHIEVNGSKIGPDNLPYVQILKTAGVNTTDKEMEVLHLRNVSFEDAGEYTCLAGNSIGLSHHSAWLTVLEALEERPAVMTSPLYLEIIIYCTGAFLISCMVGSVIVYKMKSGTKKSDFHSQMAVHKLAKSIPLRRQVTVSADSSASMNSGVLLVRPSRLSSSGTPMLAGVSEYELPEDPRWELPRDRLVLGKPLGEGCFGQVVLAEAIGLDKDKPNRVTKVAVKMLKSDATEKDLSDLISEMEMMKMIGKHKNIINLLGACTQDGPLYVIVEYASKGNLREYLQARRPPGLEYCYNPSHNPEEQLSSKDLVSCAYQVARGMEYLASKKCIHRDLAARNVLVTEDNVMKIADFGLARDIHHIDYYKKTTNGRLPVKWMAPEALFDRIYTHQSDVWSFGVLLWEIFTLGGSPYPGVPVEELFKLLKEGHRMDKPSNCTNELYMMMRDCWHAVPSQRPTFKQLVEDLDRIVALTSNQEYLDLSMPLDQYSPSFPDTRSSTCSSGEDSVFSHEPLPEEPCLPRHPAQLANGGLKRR

[9] = target: T9, FGFR4 (Homo sapiens, UniProt P22455)
T9 construct: purchased Eurofins DiscoverX KINOMEscan (scanTK)

[10] = target: T10, EGFR(G719C) (Homo sapiens, UniProt P00533, G719C)
T10 construct: purchased Eurofins DiscoverX KINOMEscan (scanTK)
T10 sequence (P00533 25-1210 G719C): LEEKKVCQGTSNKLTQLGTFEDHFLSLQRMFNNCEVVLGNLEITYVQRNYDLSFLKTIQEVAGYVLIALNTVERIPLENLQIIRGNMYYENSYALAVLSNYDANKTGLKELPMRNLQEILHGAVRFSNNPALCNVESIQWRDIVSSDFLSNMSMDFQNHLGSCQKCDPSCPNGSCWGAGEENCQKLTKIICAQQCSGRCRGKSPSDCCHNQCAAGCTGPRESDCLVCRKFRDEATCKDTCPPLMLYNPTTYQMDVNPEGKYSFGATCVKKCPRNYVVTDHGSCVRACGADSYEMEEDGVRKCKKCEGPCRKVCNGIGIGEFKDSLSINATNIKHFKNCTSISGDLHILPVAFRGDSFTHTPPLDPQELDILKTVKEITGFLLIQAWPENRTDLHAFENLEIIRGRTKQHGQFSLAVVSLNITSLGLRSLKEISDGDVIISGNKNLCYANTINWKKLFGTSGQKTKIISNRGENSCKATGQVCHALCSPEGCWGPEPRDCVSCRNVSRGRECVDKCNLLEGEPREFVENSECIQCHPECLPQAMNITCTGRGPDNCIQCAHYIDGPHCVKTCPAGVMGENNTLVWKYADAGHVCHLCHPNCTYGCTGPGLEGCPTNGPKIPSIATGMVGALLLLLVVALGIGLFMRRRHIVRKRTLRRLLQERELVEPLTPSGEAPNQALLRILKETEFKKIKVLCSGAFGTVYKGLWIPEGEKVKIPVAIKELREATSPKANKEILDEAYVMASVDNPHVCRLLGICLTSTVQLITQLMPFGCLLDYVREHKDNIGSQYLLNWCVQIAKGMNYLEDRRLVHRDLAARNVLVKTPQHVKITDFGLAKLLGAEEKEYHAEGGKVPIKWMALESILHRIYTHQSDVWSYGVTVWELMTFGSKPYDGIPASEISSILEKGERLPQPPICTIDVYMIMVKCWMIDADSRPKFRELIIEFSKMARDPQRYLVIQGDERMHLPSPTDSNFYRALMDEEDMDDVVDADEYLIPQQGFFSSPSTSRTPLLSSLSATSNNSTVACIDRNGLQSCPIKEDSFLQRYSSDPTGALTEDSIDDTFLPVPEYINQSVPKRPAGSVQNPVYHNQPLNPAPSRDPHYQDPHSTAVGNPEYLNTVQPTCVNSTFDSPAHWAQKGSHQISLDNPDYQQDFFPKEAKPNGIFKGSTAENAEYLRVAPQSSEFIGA

[11] = target: T11, TRKB (Homo sapiens, UniProt Q16620)
T11 construct: purchased Eurofins DiscoverX KINOMEscan (scanTK)
T11 sequence (Q16620 32-822): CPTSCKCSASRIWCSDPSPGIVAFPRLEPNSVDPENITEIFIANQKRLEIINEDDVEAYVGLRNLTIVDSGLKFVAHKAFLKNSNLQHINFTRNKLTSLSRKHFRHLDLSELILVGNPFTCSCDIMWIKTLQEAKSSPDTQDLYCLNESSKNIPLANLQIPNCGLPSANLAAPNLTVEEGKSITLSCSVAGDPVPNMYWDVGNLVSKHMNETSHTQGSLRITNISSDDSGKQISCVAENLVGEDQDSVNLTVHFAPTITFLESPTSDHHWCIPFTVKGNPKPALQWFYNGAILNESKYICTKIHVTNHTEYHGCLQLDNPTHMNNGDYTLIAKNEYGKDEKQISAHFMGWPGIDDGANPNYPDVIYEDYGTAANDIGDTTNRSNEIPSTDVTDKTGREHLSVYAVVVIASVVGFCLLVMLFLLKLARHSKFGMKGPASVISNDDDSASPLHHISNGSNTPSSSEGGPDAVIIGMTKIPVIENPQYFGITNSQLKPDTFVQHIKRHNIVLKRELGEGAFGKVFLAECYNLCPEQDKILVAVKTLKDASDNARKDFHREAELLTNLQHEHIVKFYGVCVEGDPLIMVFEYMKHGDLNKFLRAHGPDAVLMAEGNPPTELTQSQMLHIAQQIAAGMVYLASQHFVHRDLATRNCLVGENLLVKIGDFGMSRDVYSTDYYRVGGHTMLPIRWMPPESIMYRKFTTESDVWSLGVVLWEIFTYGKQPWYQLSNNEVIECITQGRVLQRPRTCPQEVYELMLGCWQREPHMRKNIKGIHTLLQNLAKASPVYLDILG

[12] = target: T12, JAK1(JH1domain-catalytic) (Homo sapiens, UniProt P23458)
T12 construct: JAK1(JH1domain-catalytic); purchased Eurofins DiscoverX KINOMEscan (scanTK)

[13] = target: T13, EGFR(L858R) (Homo sapiens, UniProt P00533, L858R)
T13 construct: purchased Eurofins DiscoverX KINOMEscan (scanTK)

[14] = target: T14, JAK3(JH1domain-catalytic) (Homo sapiens, UniProt P52333); conditions: for inhibition at 1 µM: ScanTK
T14 construct: JAK3(JH1domain-catalytic); purchased Eurofins DiscoverX KINOMEscan (scanTK)
T14 sequence (P52333 822-1124 limits assumed): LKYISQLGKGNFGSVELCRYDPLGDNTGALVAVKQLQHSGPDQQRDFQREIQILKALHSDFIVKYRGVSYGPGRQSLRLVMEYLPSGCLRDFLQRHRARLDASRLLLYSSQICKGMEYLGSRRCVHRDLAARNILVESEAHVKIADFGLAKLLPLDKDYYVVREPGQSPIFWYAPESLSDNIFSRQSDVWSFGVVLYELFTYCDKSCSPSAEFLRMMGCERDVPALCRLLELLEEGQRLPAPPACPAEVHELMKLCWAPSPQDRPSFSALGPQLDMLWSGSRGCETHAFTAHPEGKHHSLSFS

[15] = @1000nM, ERBB3, read-out: %Control
[16] = ERBB3, read-out: %Control @1000nM
[17] = @1000nM, JAK3(JH1domain-catalytic), read-out: %Control
[18] = JAK3(JH1domain-catalytic), read-out: %Control @1000nM

## Cc1cnc(S(C)(=O)=O)nc1N1CCCC(n2nc(-c3ccc(Oc4ccccc4)cc3)c3c(N)ncnc32)C1 (centres unmarked) [Compound 8a, 1-(1-(5-Methyl-2-(methylsulfonyl)pyrimidin-4-yl)piperidin-3-yl)-3-(4-phenoxyphenyl)-1H-pyrazolo[3,4-d]pyrimidin-4-amine]
[1]; @1000nM, ERBB3
  % of control difference from compound Ib at 1 µM: 0%
[1]; [15]
  remaining binding at 1 µM: 0%
[1]; [16]
  remaining binding at 1 µM: 0%
[2]; @1000nM
  difference in %Control versus compound Ib at 1 µM: -2%
[2]; @1000nM, read-out: %Control
  remaining binding at 1 µM: 94%
[2]; read-out: %Control @1000nM
  remaining binding at 1 µM: 94%
[3]; @1000nM
  difference in %Control versus compound Ib at 1 µM: -12%
[3]; @1000nM, read-out: %Control
  remaining binding at 1 µM: 88%
[3]; read-out: %Control @1000nM
  remaining binding at 1 µM: 88%
[4]; @1000nM
  difference in % of control vs compound Ib at 1 µM: -5%
[4]; @1000nM, read-out: %Control
  remaining binding at 1 µM: 95%
[4]; read-out: %Control @1000nM
  remaining binding at 1 µM: 95%
[5]; @1000nM
  difference in %Control versus compound Ib at 1 µM: 9%
[5]; @1000nM, read-out: %Control
  remaining binding at 1 µM: 70%
[5]; read-out: %Control @1000nM
  remaining binding at 1 µM: 70%
[6]; @1000nM
  difference in %Control from reference compound Ib at 1 µM: 29%
[6]; @1000nM, read-out: %Control
  remaining binding at 1 µM: 70%
[6]; read-out: %Control @1000nM
  remaining binding at 1 µM: 70%
[7]; @1000nM
  difference in %Control versus compound Ib at 1 µM: 98%
[7]; @1000nM, read-out: %Control
  remaining binding at 1 µM: 100%
[7]; read-out: %Control @1000nM
  remaining binding at 1 µM: 100%
[8]; @1000nM
  difference in %Control from compound Ib at 1 µM: 44%
[8]; @1000nM, read-out: %Control
  remaining binding at 1 µM: 77%
[8]; read-out: %Control @1000nM
  remaining binding at 1 µM: 77%
[9]; @1000nM
  difference in %Control from compound Ib at 1 µM: 1%
[9]; @1000nM, read-out: %Control
  remaining binding at 1 µM: 97%
[9]; read-out: %Control @1000nM
  remaining binding at 1 µM: 97%
[10]; @1000nM
  difference in %Control vs compound Ib at 1 µM: 32.9%
[10]; @1000nM, read-out: %Control
  remaining binding at 1 µM: 34%
[10]; read-out: %Control @1000nM
  remaining binding at 1 µM: 34%
[11]; @1000nM, TRKB
  difference in %Control versus compound Ib at 1 µM: -17%
[11]; @1000nM, TRKB, read-out: %Control
  remaining binding at 1 µM: 75%
[11]; TRKB, read-out: %Control @1000nM
  remaining binding at 1 µM: 75%
[12]; @1000nM
  difference in %Control versus compound Ib at 1 µM: 0%
[12]; @1000nM, read-out: %Control
  remaining binding at 1 µM: 94%
[12]; read-out: %Control @1000nM
  remaining binding at 1 µM: 94%
[13]; @1000nM
  %Control difference from compound Ib at 1 µM: 81.1%
[13]; @1000nM, read-out: %Control
  remaining binding at 1 µM: 83%
[13]; read-out: %Control @1000nM
  remaining binding at 1 µM: 83%
[14]; @1000nM, JAK3(JH1domain-catalytic)
  difference in %Control from compound Ib at 1 µM: 94.5%
[14]; [17]
  remaining binding at 1 µM: 100%
[14]; [18]
  remaining binding at 1 µM: 100%
[14]
  inhibition at 1 µM: < 1%

## C=CC(=O)N1CCC[C@@H](n2nc(-c3ccc(Oc4ccccc4)cc3)c3c(N)ncnc32)C1 [Compound 1g, Ibrutinib, reference compound]
[1]; [15]
  remaining binding at 1 µM: 0%
[1]; [16]
  remaining binding at 1 µM: 0%
[1]; read-out: % inhibition, ERBB3
  inhibition at 1 µM: > 99%
[3]; @1000nM, read-out: %Control
  remaining binding at 1 µM: 100%
[3]; read-out: %Control @1000nM
  remaining binding at 1 µM: 100%
[4]; @1000nM, read-out: %Control
  remaining binding at 1 µM: 100%
[4]; read-out: %Control @1000nM
  remaining binding at 1 µM: 100%
[5]; @1000nM, read-out: %Control
  remaining binding at 1 µM: 61%
[5]; read-out: %Control @1000nM
  remaining binding at 1 µM: 61%
[6]; @1000nM, read-out: %Control
  remaining binding at 1 µM: 41%
[6]; read-out: %Control @1000nM
  remaining binding at 1 µM: 41%
[8]; @1000nM, read-out: %Control
  remaining binding at 1 µM: 33%
[8]; read-out: %Control @1000nM
  remaining binding at 1 µM: 33%
[9]; @1000nM, read-out: %Control
  remaining binding at 1 µM: 96%
[9]; read-out: %Control @1000nM
  remaining binding at 1 µM: 96%
[11]; read-out: %Control
  remaining binding at 1 µM: 92%
[11]; read-out: %Control @1000nM
  remaining binding at 1 µM: 92%
[12]; @1000nM, read-out: %Control
  remaining binding at 1 µM: 94%
[12]; read-out: %Control @1000nM
  remaining binding at 1 µM: 94%
[14]; [17]
  remaining binding at 1 µM: 5.5%
[14]; [18]
  remaining binding at 1 µM: 5.5%
[14]
  inhibition at 1 µM: 95%
